Reference: patent US8093043B2, “β-TrCP1, β-TrCP2 and RSK1 or RSK2 inhibitors and methods for sensitizing target cells to apoptosis” (New York University, priority 2008, dated 2012)
Entries after “also recorded” stand apart in the source; their conditions may differ. One block for each compound: values may come before it. Non-standard residues stand in square brackets, D forms with d. Residues, ends and D or L forms follow the SMILES beside them. No end group written: not given here. *: point of attachment. pS = N[C@@H](COP(=O)(O)O)C(=O)O; Cbz = O=C(OCc1ccccc1)*

Legend:
BimEL [1] = assay: PMA-induced BimEL degradation in HEK293 cells (immunoblot); type: cell-based, human
Description: siRNA. β-TrCP1/2 siRNA […] (SEQ ID NO:19) (Guardavaccaro et al., In vivo Dev Cell, 2003, 4:799-812; Margottin-Goguet cl al., Dev Cell, 2003; 4:813-26); RSK1 siRNA […] (SEQ ID NO:21) and RSK2 siRNA […] (SEQ ID NO:22) (Anjum et al., Curr Biol., 2005, 15:1762-7; Roux et al., J Biol. Chem., 2007, 282:14056-64). Control oligonucleotide was a dsRNA oligo to LacZ mRNA […] (SEQ ID NO:28). All siRNA oligonucleotides were from Dharmacon Research Inc. (Lafayette, Colo.). Cells were transfected with siRNA duplexes by Oligofectamine (Invitrogen, Carlsbad, Calif.), following manufacturer's instructions. Cells were transfected with the oligos twice (at 24 and 48 hours after plating) using oligofectamine (Invitrogen) for HEK293, HiPerFect (Qiagen) for NSCLC cell lines, or the AMAXA nucleofactor (Amaxa Inc. Gaithersburg, Md.) for CD4+ human T cell blasts at day 5, according to manufacturer's recommendations. 24 or 48 hours after the last transfection, cells were collected and analyzed.
(§1) When βTrCP1/2 is silenced (FIG. 4A) or RSK1/2 is silenced (FIG. 4B), BimEL's degradation (induced with PMA) is inhibited. […] For the experiments shown in FIG. 4A, HEK293 cells were treated with control siRNA (SEQ ID NO:28) or siRNA targeting βTrcp1/2 (SEQ ID NO:19). 48 hours after siRNA treatment cells were treated with PMA or with PMA+MG 132 (last four lanes) for indicated times. Protein extracts were immunoblotted for the indicated proteins.
For the experiments shown in FIG. 4B, HEK293 cells were treated with control siRNA (SEQ ID NO:28) or siRNA targeting RSK 1 (SEQ ID NO:21) and RSK2 (SEQ ID NO:22). 48 hours after siRNA treatment cells were treated with PMA for indicated times. Protein extracts were immunoblotted for the indicated proteins.

βTrCP = βTrCP knockdown efficiency (Cdc25A accumulation, RT-PCR); type: cell-based, human; conditions: HEK293 cells; accumulation of Cdc25A, confirmed by RT-PCR
Protocol: FIGS. 8A-E represent quantitative analysis of βTrCP1 mRNA in HEK293, HCC827, H1650 cell lines and CD4+ human T cells treated with an siRNA oligo targeting both βTrCP1 and βTrCP2 mRNAs (SEQ ID NO:19). Representative examples showing knockdown efficiency for βTrCP siRNA by RT-PCR analysis with oligo-dT-primed, reverse-transcribed cDNA derived from total RNA that was prepared from the indicated cells transfected with either control or βTrCP siRNAs. Quantitative PCR was conducted using locus-specific primers: forward […] (SEQ ID NO:29) and reverse […] (SEQ ID NO:30) (n=3, ±SD). For HEK293 cells, knockdown efficiency was additionally analyzed by βTrCP1 immunoprecipitation and subsequent immunoblot analysis (D).
as §1

β-TrCP1 = molecular target: T1, β-TrCP1 (Homo sapiens, UniProt Q9Y297); assay: In vitro peptide binding assay with 35S-labeled in vitro translated β-TrCP1; conditions: autoradiography; Fbxw2 and Fbxw4 as comparison
T1 construct: host or cells: cell-free in vitro transcription/translation in reticulocyte lysate
T1 sequence (Q9Y297 1-605): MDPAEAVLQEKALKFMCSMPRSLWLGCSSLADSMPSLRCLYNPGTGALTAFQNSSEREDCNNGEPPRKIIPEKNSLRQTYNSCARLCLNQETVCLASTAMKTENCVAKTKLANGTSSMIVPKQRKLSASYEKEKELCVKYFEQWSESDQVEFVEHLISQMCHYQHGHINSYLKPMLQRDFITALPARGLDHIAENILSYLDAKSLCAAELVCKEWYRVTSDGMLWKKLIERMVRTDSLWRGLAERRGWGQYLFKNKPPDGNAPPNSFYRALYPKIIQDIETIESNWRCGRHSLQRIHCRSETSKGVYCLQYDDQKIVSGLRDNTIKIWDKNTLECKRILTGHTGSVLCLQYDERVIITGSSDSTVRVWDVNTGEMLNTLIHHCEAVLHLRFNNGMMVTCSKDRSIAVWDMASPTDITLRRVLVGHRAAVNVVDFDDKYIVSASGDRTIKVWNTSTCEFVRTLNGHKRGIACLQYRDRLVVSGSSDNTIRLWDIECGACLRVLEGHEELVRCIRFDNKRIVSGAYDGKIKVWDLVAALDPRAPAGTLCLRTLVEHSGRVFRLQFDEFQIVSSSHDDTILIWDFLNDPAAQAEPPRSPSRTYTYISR
Protocol: Peptide binding assay. The peptides were coupled to agarose beads using the Aminolink Kit (Pierce, Rockford, Ill.). Coupled BimEL, β-TrCP1/2, RSK1/2, or Cdc25A peptides (10 mg) were incubated with ^35S-methionine-labeled in vitro-translated β-TrCP1/2, FBXW2 or FBXW4, using the TNT-coupled reticulocyte lysate system (Promega, Madison, Wis.) in the presence of 5 μCi of ^35S-labeled methionine (Amersham Biosciences, Piscataway, N.Y.). Agarose beads were washed with RIPA buffer and binding was assayed by SDS-PAGE followed by autoradiography.
In this experiment in vitro binding assays were performed using in, vitro translated β-TrCP1 and a purified BimEL peptide composed of 13 amino-acids containing the degron motif. The in vitro binding assays were performed between ^35S-labeled in vitro transcribed/translated β-Trcp1, Fbxw2 and Fbxw4 and beads-coupled BimEL peptide ^88[…]^100 (SEQ ID NO:24) or BimEL phosphopeptide ^88CLSRSpSpSGYFpSFD^100 (SEQ ID NO:25). Bound proteins were eluted and subjected to electrophoresis and autoradiography.

BimEL [2] = assay: BimEL accumulation in MEFs after pharmacological RSK inhibition (immunoblot); type: cell-based, mouse; conditions: MEFs, 0, 1 and 5 μM BI-D1870 for 12 hours, immunoblot for Bim
Protocol: MEFs were treated with 0, 1 and 5 μM BI-D1870 for 12 hours. Cell extracts were then immunoblotted for the Bim and HSP70 (control) proteins.
Western Blotting (IP-Western). Immuno-blotting was conducted essentially as described in Donzelli et al. (2002), supra. Three pieces of the Whatman paper were wetted in Western transfer buffer (48 mM Tris Base, 39 mM Glycine, 0.0375% SDS, and 20% Methanol in ddH2O), excess of buffer was removed and pieces were placed onto the platinum anode (BIO-RAD semi-dry trans-blot SD). The nitrocellulose was wetted in the same buffer and placed onto the Whatman paper. The gel was wetted in the transfer buffer for 5 to 10 seconds and placed onto the nitrocellulose. Three pieces of Whatman paper were wetted and, removing excess of buffer, placed onto the gel. Air bubbles were removed throughout this procedure. The trans-blot cathode was placed onto the stack. The gel was transferred at a constant voltage between 15 to 25V for 30 minutes.

primary thymocytes = assay: Cell death of primary thymocytes from Bim+/+ or Bim−/− mice (propidium iodide flow cytometry); type: cell-based, mouse; conditions: primary thymocytes (T cells) from Bim+/+ or Bim−/− mice, 10 mM BI-D1870, 0-5 days
Protocol: Cell death was induced by addition of 10 mM BI-D1870 for 0-5 days in primary thymocytes obtained from Bim+/+ or Bim−/− mice. Cell viability was determined by flow cytometric analysis by staining the cells with propidium iodide. Cell debris was excluded from analysis based on its forward and sideward scatter characteristics. The experiment was performed in triplicate using 3 Bim+/+ and 2 Bim−/− mice for each experiment. Data shown are the means±1 SD.
Cells. HeLa (from ATCC) and U2OS (from ATCC) cells were cultured essentially as described in Donzelli et al. (EMBO J., 2002; 21:4875-84). Cells were grown at 37° C. in a 5% CO2 atmosphere in Dulbecco's modified Eagle's medium (Euroclone) supplemented with 10% bovine calf serum (Hyclone) and 2 mM L-glutamine (Euroclone), or in DMEM containing 5% fetal calf serum (FCS, from GIBCO). HEK293 (from ATCC), Bim−/− MEFs and Bax−/−; Bak−/− immortalized mouse embryo fibroblasts (MEFs) (from Dr. Huang at The Walter and Eliza Hall Institute of Medical Research, Australia; see Bouillet et al., Science, 1999, 286:1735-1738; Lindsten et al., Mol. Cell, 2000, 6:1389-1399) were maintained in Dulbecco's modified Eagle's medium (DMEM) containing 10% fetal bovine serum (FBS, from GIBCO). H1650 and HCC827 cells (both from ATCC) were maintained in RPMI-1640 medium (GIBCO) containing 10% FBS. Primary thymocytes were obtained from 6 week Bim+/+ or Bim−/− mice. […]

BimEL [3] = assay: In vivo phosphorylation of BimEL on Ser93/94/98 (immunoprecipitation, phospho-specific antibody); type: cell-based; conditions: cells serum deprived 24 hours, PMA for 10 minutes
Protocol: Serines 93, 94 and 98 were also shown to be phosphorylated in vivo following activation of ERK by either serum addition or PMA (FIG. 2C). In this experiment, BimEL from cells treated with PMA as well as from cells released from serum starvation were immunoprecipitated. In the experiments in FIG. 2C, cells were serum deprived (SD) for 24 hours, serum released (SR) for 10 minutes (lane 2) or treated with PMA for 10 minutes (lane 3-5). Whole cell extracts (WCE) were subjected to immunoprecipitation using HA resin (α-HA) followed by immunoblotting for β-TrCP1, and antiHA (for BimEL).

H1650 cells = conditions: EGFR mutant NSCLC; cited from earlier work
[4] = siRNAs targeting RSK1 and RSK2 used together, PMA 48 hours after siRNA

Compound: GUGGAAUUUGUGGAACAUC [SEQ ID NO:19]
effect on PMA-induced BimEL degradation (BimEL [1]; siRNA targeting βTrcp1/2, PMA 48 hours after siRNA): counteracted the effect of PMA on BimEL degradation, stabilizing BimEL
βTrCP knockdown (βTrCP): efficient βTrCP knockdown

Compound: CCCAACAUCAUCACUCUGAAA (listed as RNA, chemistry not given here; listed as Homo sapiens) [SEQ ID NO:21, siRNA for human RSK1]
effect on PMA-induced BimEL degradation (BimEL [1]; [4]): counteracted the effect of PMA on BimEL degradation, stabilizing BimEL

binding of βTrCP1 to beads-coupled BimEL peptide (β-TrCP1): binds specifically
Compound: ^88CLSRSpSpSGYFpSFD^100 (CLSRS[pS][pS]GYF[pS]FD; listed as Homo sapiens) [SEQ ID NO:25, BimEL phosphopeptide of 13 amino acids containing the degron motif]

Compound: AGCGCUGAGAAUGGACAGCAA (listed as RNA, chemistry not given here; listed as Homo sapiens) [SEQ ID NO:22, siRNA for human RSK2]
effect on PMA-induced BimEL degradation (BimEL [1]; [4]): counteracted the effect of PMA on BimEL degradation, stabilizing BimEL

Compound: CC(C)C[C@@H](C=O)NC(=O)[C@H](CC(C)C)NC(=O)[C@H](CC(C)C)NC(=O)OCc1ccccc1 [MG132] (Cbz-Leu-Leu-Leu-aldehyde)
effect on PMA-induced BimEL degradation (BimEL [1]; PMA+MG 132): Inhibition of BimEL's degradation

Compound: CC(C)CCN1c2nc(Nc3cc(F)c(O)c(F)c3)ncc2N(C)C(=O)C1C (stereo not shown) [BI-D1870]
BimEL accumulation (BimEL [2]): induced BimEL accumulation; also recorded: induces an accumulation of BimEL
Bim-dependent cell death / cell viability (primary thymocytes): from wild-type mice, but not from Bim^−/− mice, died; also recorded: induces Bim-dependent cell death

Compound: CCCCCCCCCCCCCC(=O)O[C@@H]1[C@@H](C)[C@@]2(O)[C@@H](C=C(CO)C[C@]3(O)C(=O)C(C)=C[C@@H]23)[C@@H]2C(C)(C)[C@]12OC(C)=O [PMA]
phosphorylation of BimEL on Ser93/94/98 (BimEL [3]): rapidly induced

Compound: COc1cc2ncnc(Nc3ccc(F)c(Cl)c3)c2cc1OCCCN1CCOCC1 [gefitinib]
sensitivity to gefitinib (H1650 cells): not
